Source: patent US20260315492A1, “5,6-FUSED BICYCLIC AMIDES AND COMPOSITIONS FOR USE AS 15-PROSTAGLANDIN DEHYDROGENASE MODULATORS” (AMGEN INC., priority 2023, published 2026)

Biological target: T1, human recombinant 15-PGDH (Homo sapiens, UniProt P15428)
T1 sequence (P15428 1-266): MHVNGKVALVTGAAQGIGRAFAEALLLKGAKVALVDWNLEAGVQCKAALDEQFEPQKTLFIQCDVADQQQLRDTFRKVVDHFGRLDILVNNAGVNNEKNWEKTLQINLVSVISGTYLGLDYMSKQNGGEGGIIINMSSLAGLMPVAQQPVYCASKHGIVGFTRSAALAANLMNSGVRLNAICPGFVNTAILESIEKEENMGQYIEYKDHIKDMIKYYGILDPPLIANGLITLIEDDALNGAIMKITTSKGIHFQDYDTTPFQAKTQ
Assay: Inhibition of recombinant 15-PGDH enzymatic activity (NADH quantification after addition of PGE2 and NAD+)
Format: biochemical
Conditions: recombinant 15-PGDH; 15 min pre-incubation, 60-minute reaction, room temperature, pH 7.5; PGE2 and NAD+; read-out: PGDH-Lumi IC50
Experimental: The compound dose-response of its inhibition of 15-PGDH activity was determined in human recombinant 15-PGDH enzymatical assays. These assays measured 15-PGDH enzymatic activity by quantifying the amount of NADH produced during a 60-minute reaction initiated by the addition of PGE2 and NAD+. Under the conditions of these experiments, the increase of NADH signal upon oxidation of PGE2 and reduction of NAD+ was linearly proportional to 15-PGDH enzymatic activity. The recombinant human, mouse, rat and dog 15-PGDH enzymatic assays were performed in a 25 μL volume of reaction buffer containing 50 mM Tris, pH 7.5, 0.01% Tween-20 and 100 μM DTT in a 384-well microtiter plate. In concentration-response experiments with tested compounds, 22 concentrations from 2-fold serial dilutions in DMSO were pre-incubated with 15-PGDH for 15 minutes at room temperature. Then, PGE2 and ß-NAD+ were added to initiate the 15-PGDH reaction. After 60 minutes at room temperature, the reaction was quenched and NADH signal was measured using a microtiter plate reader.
The following data (Table 11-1) provides the IC50 of each compound for inhibiting enzymatic activity of recombinant 15-PGDH in the assay described above.

Row | IC50 [nM] | SMILES
1 | 189 | C[C@@H]1COCCN1C(=O)c1cc2ccc(-c3ccc4ncccc4c3)nc2s1 [Compound B61R, ((3R)-3-methyl-4-morpholinyl)(6-(6-quinolinyl)thieno[2,3-b]pyridin-2-yl)methanone]
2 | 40.3 | C[C@@H]1COCCN1C(=O)c1cc2ccc(-c3cnc4nn(C)nc4c3)nc2s1 [Compound B43R, ((3R)-3-methyl-4-morpholinyl)(6-(2-methyl-2H-[1,2,3]triazolo[4,5-b]pyridin-6-yl)thieno[2,3-b]pyridin-2-yl)methanone]
3 | 6.39 | C[C@@H]1COCCN1C(=O)c1cc2ccc(-c3cnc4nn(C)cc4c3)nc2s1 [Compound B9R, ((3R)-3-methyl-4-morpholinyl)(6-(2-methyl-2H-pyrazolo[3,4-b]pyridin-5-yl)thieno[2,3-b]pyridin-2-yl)methanone]
4 | 1.58 | CC(C)(C)OC(=O)N1CCN(c2ncc(-c3cc(C4CC4)c4cc(C(=O)N5CCCCC5)sc4n3)cn2)CC1 [Compound B18, 2-methyl-2-propanyl 4-(5-(4-cyclopropyl-2-(1-piperidinylcarbonyl)thieno[2,3-b]pyridin-6-yl)-2-pyrimidinyl)-1-piperazinecarboxylate]
5 | 0.711 | Cn1cc2cc(-c3cc(C4CCC4)c4c(N)c(C(=O)N5CCOCC5)sc4n3)cnc2n1 [Compound B3, (3-amino-4-cyclobutyl-6-(2-methyl-2H-pyrazolo[3,4-b]pyridin-5-yl)thieno[2,3-b]pyridin-2-yl)(4-morpholinyl)methanone]
6 | 1.38 | Cn1cc2cc(-c3cnc4cc(C(=O)N5CCC(F)(F)CC5)sc4n3)cnc2n1 [Compound C39]
7 | 986 | C[C@H]1COCCN1C(=O)c1cc2ccc(-c3ccc(=O)[nH]c3)nc2s1 [Compound B48S, 5-(2-(((3S)-3-methyl-4-morpholinyl)carbonyl)thieno[2,3-b]pyridin-6-yl)-2(1H)-pyridinone]
8 | 1330 | O=C(c1cc2ccc(-c3nccs3)nc2s1)N1CCOCC1 [Compound B38, 4-morpholinyl(6-(1,3-thiazol-2-yl)thieno[2,3-b]pyridin-2-yl)methanone]
9 | 5.55 | Cn1cc2cc(-c3ccc4cc(C(=O)N5CCOCC5)sc4n3)cnc2n1 [Compound B8, (6-(2-methyl-2H-pyrazolo[3,4-b]pyridin-5-yl)thieno[2,3-b]pyridin-2-yl)(4-morpholinyl)methanone]
10 | 2.64 | Cn1cnc2ncc(-c3ccc4cc(C(=O)N5CCOCC5)sc4n3)cc21 [Compound B50, (6-(1-methyl-1H-imidazo[4,5-b]pyridin-6-yl)thieno[2,3-b]pyridin-2-yl)(4-morpholinyl)methanone]
11 | 273 | Cc1c(C(=O)N2CCOC[C@H]2C)sc2cc(-c3cnc4nn(C)cc4c3)ccc12 [Compound A1R, (3-methyl-6-(2-methyl-2H-pyrazolo[3,4-b]pyridin-5-yl)-1-benzothiophen-2-yl)((3R)-3-methyl-4-morpholinyl)methanone]
12 | 0.704 | COCCN(C)C(=O)c1cc2c(C3CC3)cc(-c3cnc4nn(C)cc4c3)nc2s1 [Compound B12, 4-cyclopropyl-N-(2-methoxyethyl)-N-methyl-6-(2-methyl-2H-pyrazolo[3,4-b]pyridin-5-yl)thieno[2,3-b]pyridine-2-carboxamide]
13 | 9.51 | Cn1cc2cc(-c3cnc4sc(C(=O)N5CCCCC5)cc4c3)cnc2n1 [Compound B16, (5-(2-methyl-2H-pyrazolo[3,4-b]pyridin-5-yl)thieno[2,3-b]pyridin-2-yl)(1-piperidinyl)methanone]
14 | 8.15 | Cn1ccc2cc(-c3ccc4cc(C(=O)N5CCOCC5)sc4n3)cnc2c1=O [Compound B58, 7-methyl-3-(2-(4-morpholinylcarbonyl)thieno[2,3-b]pyridin-6-yl)-1,7-naphthyridin-8(7H)-one]
15 | 23.4 | C[C@H]1COCCN1C(=O)c1cc2ccc(-c3cnc4nn(C)nc4c3)nc2s1 [Compound B43S, ((3S)-3-methyl-4-morpholinyl)(6-(2-methyl-2H-[1,2,3]triazolo[4,5-b]pyridin-6-yl)thieno[2,3-b]pyridin-2-yl)methanone]
16 | 4260 | C[C@@H]1COCCN1C(=O)c1cc2ccc(-c3cnc4c(=O)n(C)ccc4c3)nc2s1 [Compound B62R, 7-methyl-3-(2-(((3R)-3-methyl-4-morpholinyl)carbonyl)thieno[2,3-b]pyridin-6-yl)-1,7-naphthyridin-8(7H)-one]
17 | 0.816 | C[C@@H]1COCCN1C(=O)c1sc2nc(-c3cnc4nn(C)cc4c3)cc(C3CCC3)c2c1N [Compound B6R, (3-amino-4-cyclobutyl-6-(2-methyl-2H-pyrazolo[3,4-b]pyridin-5-yl)thieno[2,3-b]pyridin-2-yl)((3R)-3-methyl-4-morpholinyl)methanone]

Row | IC50 [nM] | SMILES
18 | 340 | Cn1cc2cc(-c3ccc4cc(C(=O)N5CCOCC56COC6)sc4n3)cnc2n1 [Compound B51, 2,8-dioxa-5-azaspiro[3.5]nonan-5-yl(6-(2-methyl-2H-pyrazolo[3,4-b]pyridin-5-yl)thieno[2,3-b]pyridin-2-yl)methanone]
19 | 2.38 | Cn1cc2cc(-c3ccc4cc(C(=O)N5CC6CCC(C5)O6)sc4n3)cnc2n1 [Compound B37, (6-(2-methyl-2H-pyrazolo[3,4-b]pyridin-5-yl)thieno[2,3-b]pyridin-2-yl)(8-oxa-3-azabicyclo[3.2.1]octan-3-yl)methanone]
20 | 0.375 | Cn1cc2cc(-c3ccc4sc(C(=O)N5CCCC(F)(F)C5)cc4n3)cnc2n1 [Compound C43, (3,3-difluoro-1-piperidinyl)(5-(2-methyl-2H-pyrazolo[3,4-b]pyridin-5-yl)thieno[3,2-b]pyridin-2-yl)methanone]
21 | 56.7 | C[C@@H]1COCCN1C(=O)c1cc2ccc(-c3cnc4c(c3)nnn4C)nc2s1 [Compound B44R, ((3R)-3-methyl-4-morpholinyl)(6-(3-methyl-3H-[1,2,3]triazolo[4,5-b]pyridin-6-yl)thieno[2,3-b]pyridin-2-yl)methanone]
22 | 144 | C[C@H]1COCCN1C(=O)c1cc2ccc(-c3ccc4ncccc4c3)nc2s1 [Compound B55S, ((3S)-3-methyl-4-morpholinyl)(6-(6-quinolinyl)thieno[2,3-b]pyridin-2-yl)methanone]
23 | 3.11 | C[C@@H]1COCCN1C(=O)c1cc2c(C3CC3)cc(-c3cnc4nn(C)cc4c3)nc2s1 (single isomer, unassigned) [Compound B17R]
24 | 3.61 | O=C(c1cc2c(C3CC3)cc(-c3cnc(N4CCNCC4)nc3)nc2s1)N1CCCCC1 [Compound B22, (4-cyclopropyl-6-(2-(1-piperazinyl)-5-pyrimidinyl)thieno[2,3-b]pyridin-2-yl)(1-piperidinyl)methanone]
25 | 3.53 | Cn1cc2cc(-c3ccc4sc(C(=O)N5CCC(F)(F)CC5)c(N)c4n3)cnc2n1 [Compound C48, (3-amino-5-(2-methyl-2H-pyrazolo[3,4-b]pyridin-5-yl)thieno[3,2-b]pyridin-2-yl)(4,4-difluoro-1-piperidinyl)methanone]
26 | 0.429 | Cn1cc2cc(-c3ccc4sc(C(=O)N5CCC(F)(F)CC5)cc4n3)cnc2n1 [Compound C41, (4,4-difluoro-1-piperidinyl)(5-(2-methyl-2H-pyrazolo[3,4-b]pyridin-5-yl)thieno[3,2-b]pyridin-2-yl)methanone]
27 | 576 | Cn1cc(-c2ccc3cc(C(=O)N4CCOCC4)sc3n2)ccc1=O [Compound B35, 1-methyl-5-(2-(4-morpholinylcarbonyl)thieno[2,3-b]pyridin-6-yl)-2(1H)-pyridinone]
28 | 311 | C[C@@H]1COCCN1C(=O)c1cc2ccc(-c3cc(=O)n(C)cn3)nc2s1 [Compound B36R, 3-methyl-6-(2-(((3R)-3-methyl-4-morpholinyl)carbonyl)thieno[2,3-b]pyridin-6-yl)-4(3H)-pyrimidinone]
29 | 0.712 | Cn1cc2cc(-c3ccc4cc(C(=O)N5CCOC6(CC6)C5)sc4n3)cnc2n1 [Compound B47, (6-(2-methyl-2H-pyrazolo[3,4-b]pyridin-5-yl)thieno[2,3-b]pyridin-2-yl)(4-oxa-7-azaspiro[2.5]octan-7-yl)methanone]
30 | 16.1 | Cn1nnc2cc(-c3ccc4cc(C(=O)N5CCOCC5)sc4n3)cnc21 [Compound B54, (6-(3-methyl-3H-[1,2,3]triazolo[4,5-b]pyridin-6-yl)thieno[2,3-b]pyridin-2-yl)(4-morpholinyl)methanone]
31 | 641 | O=C(c1cc2ccc(-c3ccc(=O)[nH]c3)nc2s1)N1CCOCC1 [Compound B41, 5-(2-(4-morpholinylcarbonyl)thieno[2,3-b]pyridin-6-yl)-2(1H)-pyridinone]
32 | 14400 | O=C(c1nc2ccc(N3CCOCC3)nc2s1)N1CCOCC1 [Compound C50, 4-morpholinyl(5-(4-morpholinyl)[1,3]thiazolo[5,4-b]pyridin-2-yl)methanone]
33 | 1350 | C[C@@H]1COCCN1C(=O)c1cc2ccc(-c3ccc(=O)n(C)c3)nc2s1 [Compound B32R, 1-methyl-5-(2-(((3R)-3-methyl-4-morpholinyl)carbonyl)thieno[2,3-b]pyridin-6-yl)-2(1H)-pyridinone]
